From patent US5888781A, “Method for increasing the hydrolytic activity of starch hyrdolases” (University of Maryland Baltimore County, priority 1997, dated 1999)

Key:
[1] = biological target: T1, GA from A. awamori (Aspergillus awamori, UniProt P69327); assay: Effect of cosolvent solution viscosity on kcat of GA (maltose hydrolysis); assay type: biochemical; conditions: maltose hydrolysis at 45° C.; for Effect of solution viscosity on kcat (in words): PEG200 viscosities up to 14 cp, PEG8000 up to 18 cp
T1 construct: made in house; host or cells: Saccharomyces cerevisiae
Protocol: (§1) Kinetic assays were performed either at 45° C. or at 60° C., in 0.05M sodium acetate buffer (pH 4.5), using a substrate, i.e., maltose, concentration of 20 mM. The substrate concentration was sufficiently above the Km value so that the measured rate was directly proportional to kcat.
(§2) The cosolvent solutions were prepared from a concentrated cosolvent mixture by dilution to the final concentrations ranging from 0-90% (w/v), into the appropriate reaction buffer solution. The buffer solutions were titrated for pH prior to addition of cosolvent. All of the solutions were equilibrated at 45° C. (or 60° C.) in a water bath, and the reaction was started by the addition of a 25 μl aliquot of enzyme. Reaction aliquots were removed at various times, and the reaction was stopped by the addition of 2.5M Trizma base (pH 7.0). All of the reactions were performed in duplicate. The rates were determined by measuring the concentration of the released glucose by the glucose oxidase method, using the Glucose Oxidase Kit (Sigma), as modified for microtiter plate assays, at OD450 nm (Fox et al, Anal. Biochem., 195:93-96 (1991); and Palcic et al, Carbohydr. Res., 250:87-92 (1993)), and using an EL 340 biokinetics reader (BIOTEK Instruments; Winooski, Vt.).
All buffers of various cosolvent concentrations were filtered before use. Viscosity and density measurements were performed using an Ostwald Capillary Viscometer at 45° C. The densities of the various buffer solutions were obtained by replicate weighing of one milliliter volumes of buffer.
As discussed above, if product release is the rate-limiting step in the GA mechanism, there should be a dependence of the kcat value on solution viscosity. If a conformational change associated with the product release is limiting the reaction rate, the relationship between kcat and viscosity, μ, should be μ^-δ (Demchenko et al, supra). This relationship is based on the Kramers' theory (Kramers, supra) which postulates that diffusional motion in a random field controls the rate at which the enzyme complex will pass over the activation energy barrier. […] This relationship is based on the theory that the dissociating product must have a certain minimal kinetic energy to escape some characteristic volume in the enzyme active site. Once the product has exited from the characteristic volume, the product has a very low probability of reassociating. If the former relationship is valid, plots of ln(kcat) vs ln(μ) for the various cosolvents should be linear with a slope of -δ, whereas if the latter is true plots of ln(kcat) vs (μ)^2 should be linear with a slope corresponding to -γ.

[2] = biological target: T1, GA from A. awamori; assay: GA activity assay: maltose hydrolysis in the presence of cosolvents; assay type: biochemical; conditions: maltose hydrolysis by GA at 45° C.; for Corresponding cosolvent concentration at maximum percent increase in kcat: 0.05M sodium acetate buffer pH 4.5, 20 mM maltose; for kcat: at cosolvent concentration of maximum increase
Protocol: GA was produced in Saccharomyces cerevisiae and obtained, as described by Natarajan et al, Biochem., 35:3050-3058 (1996).
as §1, with “kcat. The enzyme concentrations used in the reaction mixtures were 35 μg/ml and 3.5 μg/ml for the 45° C. and 60° C. experiments, respectively.” for “kcat.”
as §2
Glucose standards at each of the various cosolvent concentrations were run parallel to each reaction so that any effect of the cosolvents on the glucose assay could be subtracted out.

T1 sequence (P69327 25-640): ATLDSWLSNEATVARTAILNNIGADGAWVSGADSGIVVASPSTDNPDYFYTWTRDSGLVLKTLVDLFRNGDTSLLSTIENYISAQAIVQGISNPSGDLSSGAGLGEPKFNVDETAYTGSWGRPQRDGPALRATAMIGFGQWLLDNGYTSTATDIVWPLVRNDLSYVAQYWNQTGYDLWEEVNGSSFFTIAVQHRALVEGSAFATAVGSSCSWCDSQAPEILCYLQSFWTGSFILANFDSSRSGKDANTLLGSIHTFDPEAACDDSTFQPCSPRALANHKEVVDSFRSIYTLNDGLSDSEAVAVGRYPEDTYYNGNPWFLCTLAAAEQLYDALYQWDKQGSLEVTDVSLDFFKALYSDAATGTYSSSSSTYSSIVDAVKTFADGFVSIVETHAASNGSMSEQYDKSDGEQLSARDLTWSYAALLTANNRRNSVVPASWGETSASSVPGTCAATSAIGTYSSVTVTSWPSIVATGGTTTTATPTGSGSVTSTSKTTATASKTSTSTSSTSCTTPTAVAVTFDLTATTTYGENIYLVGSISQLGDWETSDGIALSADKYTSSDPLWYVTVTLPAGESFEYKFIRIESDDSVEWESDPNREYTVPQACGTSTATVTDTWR

Structure (SMILES)	Solution viscosity at which GA activity starts to decrease significantly [1]	Slope of plot of ln(kcat) vs (μ)^2 ([1]; FIGS. 4A-4G)	Effect of solution viscosity on kcat (in words) [1]	Cosolvent concentration of peak (largest) increase in kcat [2]	Maximum percent increase in kcat over control value without cosolvent [2] [%]	Corresponding cosolvent concentration at maximum percent increase in kcat [2] [%]	kcat [2] [s⁻¹]	Effect of cosolvent on kcat (in words) ([2]; FIGS. 1A-1G)
OCCO [EG, ethylene glycol]	around 3.5 cp	-0.06	substantially decreased kcat	around 50 % (w/v)	32	50	12.4	–
OCC(O)CO [Glycerol, glycerol, reference compound]	around 3.5 cp	–	substantially decreased kcat	–	11	1.0	10.4	only a minor increase in kcat
